{"source": "patent US7112565B2", "about": "“Stabilized pharmaceutical composition in lyophilized form” (Astellas Pharma Inc., priority 1999, dated 2006)", "assay": "Test Example 2: stability with maltose, sucrose or glucose as stabilizer", "format": "physicochemical", "method": "10 mg of Compound (II) and, as a stabilizer, 100 mg of lactose or 9 mg of sodium chloride were dissolved completely in 1 ml of water. The resulting solutions were lyophilized and maintained at 70° C. in glass vials. Nine days after, the resulting compositions were tested on their appearance, the residual amount of Compound (II), and others. As a control, used was a solution of Compound (II) without any stabilizers.\nThe similar tests were conducted in the same manner as in Test Example 1 except that 100 mg of maltose, 50 mg of sucrose or 50 mg of glucose was used as a stabilizer.", "key": {"[1]": {"settings": "10 mg Compound (II) + glucose (50 mg), 0 hours"}, "[2]": {"settings": "10 mg Compound (II) + glucose (50 mg), after 9 days at 70° C."}, "[3]": {"settings": "10 mg Compound (II) + maltose (100 mg), 0 hours"}, "[4]": {"settings": "10 mg Compound (II) + maltose (100 mg), after 9 days at 70° C."}, "[5]": {"settings": "10 mg Compound (II) + sucrose (50 mg), 0 hours"}, "[6]": {"settings": "10 mg Compound (II) + sucrose (50 mg), after 9 days at 70° C."}, "[7]": {"settings": "10 mg Compound (II), control: nil stabilizer, 0 hours"}, "[8]": {"settings": "10 mg Compound (II), control: nil stabilizer, after 9 days at 70° C."}}, "data": [{"smiles": "CCCCCOc1ccc(-c2cc(-c3ccc(C(=O)NC4CC(O)C(O)NC(=O)C5C(O)C(C)CN5C(=O)C(C(O)CC(N)=O)NC(=O)C(C(O)C(O)c5ccc(O)c(OS(=O)(=O)[O-])c5)NC(=O)C5CC(O)CN5C(=O)C(C(C)O)NC4=O)cc3)no2)cc1.[Na+]", "note": "(stereo not shown) [Compound (II)]", "values": [{"measurement": "Appearance", "setting": "[1]", "value": "White melt"}, {"measurement": "Residual amount", "setting": "[1]", "value": 100, "unit": "%"}, {"measurement": "Water content", "setting": "[1]", "value": 4.3, "unit": "%"}, {"measurement": "pH of reconstituted solution in 1 ml of water", "setting": "[1]", "value": 6.9}, {"measurement": "Appearance", "setting": "[2]", "value": "Brown melt"}, {"measurement": "Residual amount", "setting": "[2]", "value": 1.1, "unit": "%"}, {"measurement": "pH of reconstituted solution in 1 ml of water", "setting": "[2]", "value": 3.6}, {"measurement": "Appearance", "setting": "[3]", "value": "White mass"}, {"measurement": "Residual amount", "setting": "[3]", "value": 100.0, "unit": "%"}, {"measurement": "Water content", "setting": "[3]", "value": 0.9, "unit": "%"}, {"measurement": "pH of reconstituted solution in 1 ml of water", "setting": "[3]", "value": 7.3}, {"measurement": "Appearance", "setting": "[4]", "value": "White mass"}, {"measurement": "Residual amount", "setting": "[4]", "value": 98.6, "unit": "%"}, {"measurement": "pH of reconstituted solution in 1 ml of water", "setting": "[4]", "value": 6.7}, {"measurement": "Appearance", "setting": "[5]", "value": "White mass"}, {"measurement": "Residual amount", "setting": "[5]", "value": 100.0, "unit": "%"}, {"measurement": "Water content", "setting": "[5]", "value": 1.1, "unit": "%"}, {"measurement": "pH of reconstituted solution in 1 ml of water", "setting": "[5]", "value": 6.9}, {"measurement": "Appearance", "setting": "[6]", "value": "White melt"}, {"measurement": "Residual amount", "setting": "[6]", "value": 82.4, "unit": "%"}, {"measurement": "pH of reconstituted solution in 1 ml of water", "setting": "[6]", "value": 7.0}, {"measurement": "Appearance", "setting": "[7]", "value": "White mass"}, {"measurement": "Residual amount", "setting": "[7]", "value": 100.0, "unit": "%"}, {"measurement": "Water content", "setting": "[7]", "value": 3.3, "unit": "%"}, {"measurement": "pH of reconstituted solution in 1 ml of water", "setting": "[7]", "value": 6.8}, {"measurement": "Appearance", "setting": "[8]", "value": "White mass"}, {"measurement": "Residual amount", "setting": "[8]", "value": "<75.0", "unit": "%"}, {"measurement": "pH of reconstituted solution in 1 ml of water", "setting": "[8]", "value": 5.4}]}]}
